# What was measured:
# Format in all cases: in vivo
# [1] = system: ragweed (common ragweed, Ambrosia elatior); assay: Test A preemergence, visual injury rating
# Summary of the method: (§1)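 Scoring: eye-based comparison with untreated controls, 0 for no effect through 100 for complete control, at about day 10. Treatments: directed soil spray preemergence; foliar spray postemergence on 2–10 cm plants at the one- to two-leaf stage. Medium: loam soil with sand.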
# [2] = system: giant foxtail (Setaria faberii); assay: Test A preemergence, visual injury rating
# Summary of the method: as §1
# [3] = system: pigweed (Amaranthus retroflexus); assay: Test A preemergence, visual injury rating
# Summary of the method: as §1
# [4] = system: kochia (Kochia scoparia); assay: Test A preemergence, visual injury rating
# Summary of the method: as §1
# [5] = system: barnyardgrass (Echinochloa crus-galli); assay: Test A preemergence, visual injury rating
# Summary of the method: as §1
# [6] = system: Italian ryegrass (Lolium multiflorum); assay: Test A preemergence, visual injury rating
# Summary of the method: as §1
# [7] = system: ragweed (common ragweed, Ambrosia elatior); assay: Test A postemergence, visual injury rating; conditions: 0 is no effect, 100 is complete control; for Ragweed plant response rating: 0 to 100 scale, approximately 10 days
# Summary of the method: as §1
# [8] = system: corn (Zea mays); assay: Test A postemergence, visual injury rating; conditions: 0 is no effect, 100 is complete control
# Summary of the method: as §1
# [9] = system: giant foxtail (Setaria faberii); assay: Test A postemergence, visual injury rating; conditions: 0 is no effect, 100 is complete control
# Summary of the method: as §1
# [10] = system: pigweed (Amaranthus retroflexus); assay: Test A postemergence, visual injury rating; conditions: 0 is no effect, 100 is complete control; for Pigweed plant response rating: 0 to 100 scale, approximately 10 days
# Summary of the method: as §1
# [11] = system: kochia (Kochia scoparia); assay: Test A postemergence, visual injury rating; conditions: 0 is no effect, 100 is complete control; for Kochia plant response rating: 0 to 100 scale, approximately 10 days
# Summary of the method: as §1
# [12] = system: barnyardgrass (Echinochloa crus-galli); assay: Test A postemergence, visual injury rating; conditions: 0 is no effect, 100 is complete control
# Summary of the method: as §1
# [13] = system: blackgrass (Alopecurus myosuroides); assay: Test A postemergence, visual injury rating; conditions: 0 is no effect, 100 is complete control
# Summary of the method: as §1
# [14] = system: galium (catchweed bedstraw, Galium aparine); assay: Test A postemergence, visual injury rating; conditions: 0 is no effect, 100 is complete control
# Summary of the method: as §1
# [15] = system: Italian ryegrass (Lolium multiflorum); assay: Test A postemergence, visual injury rating; conditions: 0 is no effect, 100 is complete control; for Ryegrass, Italian plant response rating: 0 to 100 scale, approximately 10 days
# Summary of the method: as §1
# [16] = system: wheat (Triticum aestivum); assay: Test A postemergence, visual injury rating; conditions: 0 is no effect, 100 is complete control; for Wheat plant response rating: 0 to 100 scale, approximately 10 days
# Summary of the method: as §1
# [17] = system: pigweed (Amaranthus retroflexus); assay: Test C preemergence, plant response rating; conditions: Preemergence
# [18] = 31 g ai/ha, 0 to 100 scale, 0 no effect, 100 complete control
# [19] = 125 g ai/ha, 0 to 100 scale (0 no effect, 100 complete control)
# [20] = 31 g ai/ha, 0 to 100 scale, approximately 10 days
smiles,measurement,setting,value
"N#Cc1cccc(Oc2ncc(Cl)cn2)c1CCCCC(F)(F)F [Compound 73, 3-[(5-chloro-2-pyrimidinyl)oxy]-2-(5,5,5-trifluoropentyl)benzonitrile]",pest or weed control at 125 g/ha,"[1]; Ambrosia artemisiifolia, pre-emergence, 240 h, 125 g ai/ha, 0 to 100 scale (0 no effect, 100 complete control), read-out: Ragweed plant response rating",10%
same,pest or weed control at 500 g/ha,"[1]; Ambrosia artemisiifolia, pre-emergence, 240 h, 500 g ai/ha, 0 to 100 scale (0 no effect, 100 complete control), read-out: Ragweed plant response rating",50%
same,pest or weed control at 125 g/ha,"[2]; Setaria faberi, pre-emergence, 240 h, 125 g ai/ha, 0 to 100 scale (0 no effect, 100 complete control), read-out: Foxtail, Giant plant response rating",100%
same,pest or weed control at 500 g/ha,"[2]; Setaria faberi, pre-emergence, 240 h, 500 g ai/ha, 0 to 100 scale (0 no effect, 100 complete control), read-out: Foxtail, Giant plant response rating",100%
same,pest or weed control at 125 g/ha,"[3]; Amaranthus retroflexus, pre-emergence, 240 h, 125 g ai/ha, 0 to 100 scale (0 no effect, 100 complete control), read-out: Pigweed plant response rating",100%
same,pest or weed control at 500 g/ha,"[3]; Amaranthus retroflexus, pre-emergence, 240 h, 500 g ai/ha, 0 to 100 scale (0 no effect, 100 complete control), read-out: Pigweed plant response rating",100%
same,pest or weed control at 125 g/ha,"[4]; Bassia scoparia, pre-emergence, 240 h, 125 g ai/ha, 0 to 100 scale (0 no effect, 100 complete control), read-out: Kochia plant response rating",100%
same,pest or weed control at 500 g/ha,"[4]; Bassia scoparia, pre-emergence, 240 h, 500 g ai/ha, 0 to 100 scale (0 no effect, 100 complete control), read-out: Kochia plant response rating",100%
same,pest or weed control at 125 g/ha,"[5]; Echinochloa crus-galli, pre-emergence, 240 h, 125 g ai/ha, 0 to 100 scale (0 no effect, 100 complete control), read-out: Barnyardgrass plant response rating",100%
same,pest or weed control at 500 g/ha,"[5]; Echinochloa crus-galli, pre-emergence, 240 h, 500 g ai/ha, 0 to 100 scale (0 no effect, 100 complete control), read-out: Barnyardgrass plant response rating",100%
same,pest or weed control at 125 g/ha,"[6]; Lolium multiflorum, pre-emergence, 240 h, 125 g ai/ha, 0 to 100 scale (0 no effect, 100 complete control), read-out: Ryegrass, Italian plant response rating",50%
same,pest or weed control at 500 g/ha,"[6]; Lolium multiflorum, pre-emergence, 240 h, 500 g ai/ha, 0 to 100 scale (0 no effect, 100 complete control), read-out: Ryegrass, Italian plant response rating",90%
same,Ragweed plant response rating,[7]; 125 g ai/ha,20
same,pest or weed control at 500 g/ha,"[7]; Ambrosia artemisiifolia, post-emergence, 240 h, 500 g ai/ha, read-out: Ragweed plant response rating (0 to 100 scale)",30%
same,plant injury at 125 g/ha,"[8]; Zea mays, post-emergence, 240 h, 125 g ai/ha, read-out: Corn plant response rating (0 to 100 scale)",30%
same,plant injury at 500 g/ha,"[8]; Zea mays, post-emergence, 240 h, 500 g ai/ha, read-out: Corn plant response rating (0 to 100 scale)",60%
same,pest or weed control at 125 g/ha,"[9]; Setaria faberi, post-emergence, 240 h, 125 g ai/ha, read-out: Foxtail, Giant plant response rating (0 to 100 scale)",100%
same,pest or weed control at 500 g/ha,"[9]; Setaria faberi, post-emergence, 240 h, 500 g ai/ha, read-out: Foxtail, Giant plant response rating (0 to 100 scale)",100%
same,Pigweed plant response rating,[10]; 125 g ai/ha,100
same,pest or weed control at 500 g/ha,"[10]; Amaranthus retroflexus, post-emergence, 240 h, 500 g ai/ha, read-out: Pigweed plant response rating (0 to 100 scale)",100%
same,Kochia plant response rating,[11]; 125 g ai/ha,100
same,pest or weed control at 500 g/ha,"[11]; Bassia scoparia, post-emergence, 240 h, 500 g ai/ha, read-out: Kochia plant response rating (0 to 100 scale)",100%
same,pest or weed control at 125 g/ha,"[12]; Echinochloa crus-galli, post-emergence, 240 h, 125 g ai/ha, read-out: Barnyardgrass plant response rating (0 to 100 scale)",90%
same,pest or weed control at 500 g/ha,"[12]; Echinochloa crus-galli, post-emergence, 240 h, 500 g ai/ha, read-out: Barnyardgrass plant response rating (0 to 100 scale)",100%
same,pest or weed control at 125 g/ha,"[13]; Alopecurus myosuroides, post-emergence, 240 h, 125 g ai/ha, read-out: Blackgrass plant response rating (0 to 100 scale)",50%
same,pest or weed control at 500 g/ha,"[13]; Alopecurus myosuroides, post-emergence, 240 h, 500 g ai/ha, read-out: Blackgrass plant response rating (0 to 100 scale)",100%
same,pest or weed control at 125 g/ha,"[14]; Galium, post-emergence, 240 h, 125 g ai/ha, read-out: Galium plant response rating (0 to 100 scale)",100%
same,pest or weed control at 500 g/ha,"[14]; Galium, post-emergence, 240 h, 500 g ai/ha, read-out: Galium plant response rating (0 to 100 scale)",100%
same,"Ryegrass, Italian plant response rating",[15]; 125 g ai/ha,80
same,pest or weed control at 500 g/ha,"[15]; Lolium multiflorum, post-emergence, 240 h, 500 g ai/ha, read-out: Ryegrass, Italian plant response rating (0 to 100 scale)",100%
same,Wheat plant response rating,[16]; 125 g ai/ha,20
same,plant injury at 500 g/ha,"[16]; Triticum aestivum, post-emergence, 240 h, 500 g ai/ha, read-out: Wheat plant response rating (0 to 100 scale)",90%
same,"Plant response rating, Pigweed","[17]; 125 g ai/ha, scale of 0 to 100",100
same,"Plant response rating, Pigweed","[17]; 16 g ai/ha, scale 0 to 100",90
same,"Plant response rating, Pigweed","[17]; 31 g ai/ha, scale 0 to 100",95
same,"Plant response rating, Pigweed","[17]; 62 g ai/ha, scale 0 to 100",100
O=C(CCCC(F)(F)F)c1c(Br)cccc1Oc1ncc(Cl)cn1 [Compound 77],"Plant response rating, Ragweed",[1]; [18],0
same,Ragweed plant response rating,[1]; [19],0
same,"Plant response rating, Foxtail, Giant",[2]; [18],100
same,"Foxtail, Giant plant response rating",[2]; [19],100
same,"Plant response rating, Pigweed",[3]; [18],100
same,Pigweed plant response rating,[3]; [19],100
same,"Plant response rating, Kochia",[4]; [18],80
same,Kochia plant response rating,[4]; [19],100
same,"Plant response rating, Barnyardgrass",[5]; [18],20
same,Barnyardgrass plant response rating,[5]; [19],100
same,"Plant response rating, Ryegrass, Italian",[6]; [18],0
same,"Ryegrass, Italian plant response rating",[6]; [19],70
same,Ragweed plant response rating,[7]; 31 g ai/ha,0
same,Ragweed plant response rating,[7]; 125 g ai/ha,0
same,Corn plant response rating,[8]; [20],10
same,Corn plant response rating (0 to 100 scale),[8]; 125 g ai/ha,30
same,"Foxtail, Giant plant response rating",[9]; [20],30
same,"Foxtail, Giant plant response rating (0 to 100 scale)",[9]; 125 g ai/ha,90
same,Pigweed plant response rating,[10]; 31 g ai/ha,100
same,Pigweed plant response rating,[10]; 125 g ai/ha,100
same,Kochia plant response rating,[11]; 31 g ai/ha,100
same,Kochia plant response rating,[11]; 125 g ai/ha,100
same,Barnyardgrass plant response rating,[12]; [20],30
same,Barnyardgrass plant response rating (0 to 100 scale),[12]; 125 g ai/ha,90
same,Blackgrass plant response rating,[13]; [20],20
same,Blackgrass plant response rating (0 to 100 scale),[13]; 125 g ai/ha,50
same,Galium plant response rating,[14]; [20],90
same,Galium plant response rating (0 to 100 scale),[14]; 125 g ai/ha,100
same,"Ryegrass, Italian plant response rating",[15]; 31 g ai/ha,20
same,"Ryegrass, Italian plant response rating",[15]; 125 g ai/ha,60
same,Wheat plant response rating,[16]; 31 g ai/ha,0
same,Wheat plant response rating,[16]; 125 g ai/ha,10
same,"Plant response rating, Pigweed","[17]; 125 g ai/ha, scale of 0 to 100",100
same,"Plant response rating, Pigweed","[17]; 16 g ai/ha, scale 0 to 100",85
same,"Plant response rating, Pigweed","[17]; 31 g ai/ha, scale 0 to 100",100
same,"Plant response rating, Pigweed","[17]; 62 g ai/ha, scale 0 to 100",100
